Marks after values point to notes of the source that are not given here. One block for each molecule: values may come before it.
Legend:
[1] = tested on: mouse cardiac sections; test: TUNEL apoptosis assay in hearts of doxorubicin-treated mice; format: in vivo; conditions: one day
Description: To determine if the ability of VIS and DPU to protect cardiomyocytes from apoptosis was conserved in mammals, we treated mice with doxorubicin with or without co-treatment with VIS or DPU. One day later, hearts were collected for apoptosis assays using TUNEL (Supplement FIG. 1b). […] Therefore, VIS and DPU appear to prevent doxorubicin-induced cardiac apoptosis in both zebrafish and mice.
One day after injection, hearts were collected and fixed with 4% PFA at 4° C. overnight and then were subjected to paraffin embedding and sectioning. The heart sections were stained using the TMR TUNEL kit (Roche) following the manufacturer's protocol. The stained sections were scanned with MetaMorph-assisted slide scanning microscopy, and apoptosis indices were quantified as TUNEL positive cell/mm^2. All experiments were done at least three times, and the statistics were obtained by Student T-test.

[2] = tested on: prostate tumor cell DU145; test: CellTiter Glo viability of doxorubicin-treated DU145; format: cell-based, human; conditions: VIS and DPU at 20 μM
Description: (§1) Cardiomyocyte line HL-1 was derived from mouse atrium tumor. Culturing conditions were previously published (Claycomb et al., Proc. Natl. Acad. Sci. USA, 95, 2979, 1998). HL 1 was cultured with Claycomb medium (Sigma) supplemented with fetal bovine serum (FBS), penicillin/streptomycin, L-glutamine and norepinephrine. DU145 and LNCaP are human prostate tumor lines, while MCF7 is a human breast cancer line. DU145 and MCF7 were cultured with high glucose DMEM (Life Sciences) supplemented with penicillin/streptomycin and L-glutamine, and LNCaP was grown in RPMI-1640 (Life Sciences) plus penicillin/streptomycin and L-glutamine. […] All experiments were done at least three times, and the statistics were obtained by Student T-test.

[3] = tested on: mouse heart function; test: Acute doxorubicin-induced HF model in mice, echocardiography; format: in vivo; conditions: five days
Description: Five days after the initial injection, we assessed heart function by M mode echocardiogram.
Strain C57BL/6 male mice between 8-10 weeks of age were purchased from Charles River Laboratories. […] In the control group, plain vehicle and saline were injected instead. Five days later, injected mice were subjected to echocardiography. Five days after treatment, transthoracic echocardiographic images were obtained and interpreted by an echocardiographer blinded to the experimental design using a 13.0-MHz linear probe (Vivid 7; GE Medical System, Milwaukee, Wis.) as described (Zou et al., Crit. Care Med. 38, 1335-1342, 2010; Neilan et al., Eur. Heart J. 27, 1868-1875, 2006). Mice were lightly anesthetized with ketamine (20 mg/kg). M-mode images were obtained from a parasternal short-axis view at the midventricular level with a clear view of papillary muscle. Tissue Doppler imaging was collected at a frame rate of 483 frames per second and a depth of 1 em. LV end-diastolic internal diameter (LVIDd) and LV end systolic internal diameter (LVIDS) were measured. Fractional shortening (FS) was defined as [(LVIDd−LVIDS)/LVIDd]. Strain rate of the posterior wall was analyzed offline in an EchoPAC workstation (GE Healthcare, Wauwatosa, Wis.). A region of interest (axial distance, 0.2 mm; width, 0.6 mm) was manually positioned in the middle of the posterior wall. A strain length of 0.5 mm was used. Peak systolic strain rate was measured. The temporal smoothing filters were turned off for all measurements. The values of three consecutive cardiac cycles were averaged.

[4] = tested on: tumor line LNCaP; test: Doxorubicin-induced apoptosis in tumor line LNCaP; format: cell-based, human
Description: (§2) Cardiomyocyte line HL-1 was derived from mouse atrium tumor. Culturing conditions were previously published (Claycomb et al., Proc. Natl. Acad. Sci. USA, 95, 2979, 1998). HL 1 was cultured with Claycomb medium (Sigma) supplemented with fetal bovine serum (FBS), penicillin/streptomycin, L-glutamine and norepinephrine. DU145 and LNCaP are human prostate tumor lines, while MCF7 is a human breast cancer line. DU145 and MCF7 were cultured with high glucose DMEM (Life Sciences) supplemented with penicillin/streptomycin and L-glutamine, and LNCaP was grown in RPMI-1640 (Life Sciences) plus penicillin/streptomycin and L-glutamine. […] Apoptosis indices were quantified as percentage of AnnexinV positive cells. All experiments were done at least three times, and the statistics were obtained by Student T-test.

[5] = tested on: neonatal rat cardiomyoyte; test: Doxorubicin-induced apoptosis in neonatal rat cardiomyocyte; format: cell-based
[6] = tested on: cardiomyoyte HL1; test: AnnexinV apoptosis assay in cardiomyocyte HL1; format: cell-based, mouse
Description: as §2

[7] = tested on: caspases 3, 8 and 9 in cardiomyocyte; test: Caspase 3, 8 and 9 activity (fluorogenic substrates) in cardiomyocyte; format: cell-based
Description: We also examined effects of the compounds on apoptosis (via TUNEL staining) in cardiomyocytes and tumor cells.
Specific activity of caspases 3, 8 and 9 were assessed semi-quantitatively using the corresponding fluorogenic substrates following manufacturer's protocols (R&D Systems). All experiments were done at least three times, and the statistics were obtained by Student T-test.

[8] = tested on: cardiomyocyte HL1; test: CellTiter Glo viability of doxorubicin-treated HL1; format: cell-based, mouse; conditions: VIS and DPU at 20 μM
Description: as §1

[9] = tested on: mouse heart function; test: Chronic low-dose doxorubicin treatment in mice, echocardiography; format: in vivo; conditions: low doses of doxorubicin 5 times over 5 weeks
Source text: Labels: DMSO: DMSO-treated control samples; Dox: doxorubicin-treated samples; Dox+VIS: doxorubicin and VIS co-treated samples; Dox+DPU: doxorubicin and DPU co-treated samples.

[10] = tested on: JNK phosphorylation in DU145 cells; test: JNK phosphorylation western blot in DU145 cells; format: cell-based, human
Source text: (§3) In an effort to identify pathways involved in VIS and DPU mediated cardioprotection, we screened a panel of kinases by western blotting. […] To confirm the cardiomyocyte-specific inhibition of JNK signaling, we used a luciferase-based AP1 reporter assay to detect JNK activation in HL 1 and DU145 cells.

[11] = tested on: tumor line MCF7; test: Doxorubicin-induced apoptosis in tumor line MCF7; format: cell-based, human
Description: as §2

[12] = tested on: zebrafish cardiomyocytes; test: TUNEL staining of apoptotic cardiomyocytes in doxorubicin-treated zebrafish; format: in vivo
Description: Because cardiomyocyte apoptosis plays a critical role in mediating doxorubicin-induced cardiomyopathy, we sought to determine if VIS Aand DPU attenuate heart failure by inhibiting cardiomyocyte apoptosis.
Hearts were surgically removed and fixed with 4% paraformaldehyde (PFA) for 20 minutes at room temperature. After staining with an in situ TUNEL kit (Roche), heart samples were embedded in mounting medium and flattened with slide and coverslip, and then subjected to confocal microscopy. The data were quantified as percentage of TUNEL positive cardiomyocytes. All experiments were done at least three times, and the statistics were obtained by Student T-test.

[13] = tested on: JNK responsive reporter AP-1 in DU145 cells; test: AP-1 luciferase reporter assay in DU145 cells; format: cell-based, human; conditions: doxorubicin-treated
Source text: as §3

[14] = tested on: JNK responsive reporter AP-1 in HL 1 cells; test: AP-1 luciferase reporter assay in HL 1 cells; format: cell-based, mouse; conditions: doxorubicin-treated
Source text: as §3

[15] = tested on: JNK phosphorylation in HL 1 cells; test: JNK phosphorylation western blot in HL 1 cells; format: cell-based, mouse
Source text: as §3
Blots were quantified by densitometry with Image J. All experiments were done at least three times, and the statistics were obtained by Student T-test.

[16] = tested on: tumor line DU145; test: Doxorubicin-induced apoptosis in tumor line DU145; format: cell-based, human
Description: as §2

[17] = tested on: zebrafish heart; test: Doxorubicin-induced heart failure model in zebrafish (heart contraction, tail circulation, morphology, fractional shortening); format: in vivo
Description: For screening, about 400 nl of small molecule stock solution was transferred from 96-well format library plates to fish plate with transfer pins. At dpf 3, treated fish were screened under inverted fluorescent microscope (100×) for heart contraction and tail circulation.
Zebrafish have been used successfully for high-throughput screening (HTS) to identify chemical compounds that suppress genetic defects and other disease states (Peterson et al., Methods Cell. Biol. 105, 525-541, 2011). Compared to cell-based in vitro systems, in vivo screening offers several advantages, including the ability to discover compounds with therapeutic activity even without knowing their molecular targets. In addition, compounds discovered by in vivo screening are selected for their ability to be effective in the complex context of the disease of interest. […] Heart contraction was dramatically compromised, resulting in the absence of blood cell circulation within tail blood vessels. Using a high-speed camera and a custom analysis algorithm, we were able to calculate the fractional shortening of the zebrafish hearts. […] Therefore, the zebrafish model appears to recapitulate several key aspects of the doxorubicin-induced heart failure seen in humans, including increased apoptosis and reduced contractility. Because the doxorubicin-induced changes in cardiac function and blood circulation are easily detected visually, they formed the basis of an assay to identify small molecules suppressing doxorubicin-induced cardiotoxicity.
Hearts were surgically removed and briefly fixed with 4% paraformaldehyde (PFA) for 20 minutes at room temperature. The fixed heart samples were embedded in mounting medium and flattened with slide and coverslip. Confocal images were captured from the flattened hearts, and red nuclei were counted. All experiments were done at least three times, and the statistics were obtained by Student T-test.
In order to confirm and quantify the activity of compounds with cardioprotective properties identified in the preceding assays, a high-resolution assay of cardiac function, described by Shin et al. (Physiol Genomics. 2010 July; 42(2): 300-309), can be used to measure heart fractional shortening.

[18] = patients; cited from earlier work
[19] = zebrafish treated with doxorubicin
[20] = mice, 15 mg/kg doxorubicin IP, with or without 25 mg/kg VIS IP, mean ± SEM

- activity of caspases 3, 8 and 9 activated by doxorubicin [7]: inhibited
Structure (SMILES): COc1c2ccoc2cc2oc(C)cc(=O)c12 [VIS, visnagin]
- doxorubicin-induced apoptosis in mouse heart (TUNEL) ([1]; 15 mg/kg doxorubicin plus 25 mg/kg visnagin or 10 mg/kg diphenylurea IP): significantly decreased doxorubicin-induced apoptosis
- viability of doxorubicin-treated prostate tumor cell DU145 [2]: do not increase viability
- fractional shortening and strain rate compared to mice treated with doxorubicin alone ([3]; 25 mg/kg VIS immediately prior to 15 mg/kg doxorubicin IP): significant improvement
- doxorubicin-induced apoptosis [4]: do not reduce doxorubicin-induced apoptosis
- doxorubicin-induced apoptosis, AnnexinV staining [5]: inhibit doxorubicin-induced apoptosis
- doxorubicin-induced apoptosis, TUNEL staining [5]: inhibit doxorubicin-induced apoptosis
- doxorubicin-induced apoptosis, AnnexinV staining [6]: reduce doxorubicin-induced apoptosis
- viability of doxorubicin-treated cardiomyocyte HL1 [8]: increase viability
- doxorubicin-induced reduction of fractional shortening [9]: partially reversed the reduction
- doxorubicin-induced reduction of strain rate [9]: partially reversed the reduction
- doxorubicin-induced JNK phosphorylation [10]: do not inhibit doxorubicin-induced JNK phosphorylation
- doxorubicin-induced apoptosis [11]: do not reduce doxorubicin-induced apoptosis
- number of apoptotic cardiomyocytes induced by doxorubicin (TUNEL) ([12]; 100 μM doxorubicin plus 20 μM rescue compound, two days): greatly reduced the number of apoptotic cardiomyocytes
- AP-1 luciferase activity [13]: not repressed
- AP-1 luciferase activity [14]: repressed
- doxorubicin-induced JNK phosphorylation [15]: inhibit doxorubicin-induced JNK phosphorylation
- doxorubicin-induced apoptosis [16]: do not reduce doxorubicin-induced apoptosis
- cardiac contractility as measured by fractional shortening [17, 19]: completely rescued cardiac contractility
- overt morphological effects of doxorubicin on the heart (ventricular compaction, pericardial edema) [17, 19]: prevented the overt morphological effects of doxorubicin on the heart

- atrium and ventricle cardiomyocyte numbers compared to controls ([17]; 100 μM doxorubicin for two days, cmlc2-dsRed line): significantly reduced
- pericardial edema ([17]; 100 μM doxorubicin from 1 dpf, two days exposure): extensive pericardial edema
Structure (SMILES): COc1cccc2c1C(=O)c1c(O)c3c(c(O)c1C2=O)C[C@@](O)(C(=O)CO)C[C@@H]3O[C@H]1C[C@H](N)[C@H](O)[C@H](C)O1 [doxorubicin]
- increase in apoptosis in mouse cardiac sections (TUNEL) ([1]; 15 mg/kg doxorubicin IP): 3- to 4 fold
- cumulative dosages that exponentially increase the risk of heart failure [18]: above 450 mg/m^2
- FS [3, 20]: 44 ± 2 %
- HR [3, 20]: 609 ± 23 beats/min
- LVIDs [3, 20]: 1.78 ± 0.10 mm
- Strain Rate [3, 20]: 16 ± 1*** 1/sec
- increase in apoptotic cardiomyocytes (TUNEL) ([12]; doxorubicin 100 μM, 4 dpf zebrafish): four-fold increase
- heart rate and contractility ([17]; 100 μM doxorubicin from 1 dpf, assessed at 3 dpf): dramatically reduced
